These results are taken from publication PMC10974743, “Design, Synthesis, and Biological Evaluation of Novel Phenoxy Acetic Acid Derivatives as Selective COX-2 Inhibitors Coupled with Comprehensive Bio-Pharmacological Inquiry, Histopathological Profiling, and Toxicological Scrutiny” (Molecules, 2024).

In general, IC50 refers to the concentration needed to halve the response being measured. Lower therefore signals greater potency. A word on the melting point: it is the temperature, or range, at which the solid turns liquid.

One data set has as its target T1, human COX-2 (Homo sapiens, UniProt P35354).
T1 sequence (P35354 18-604): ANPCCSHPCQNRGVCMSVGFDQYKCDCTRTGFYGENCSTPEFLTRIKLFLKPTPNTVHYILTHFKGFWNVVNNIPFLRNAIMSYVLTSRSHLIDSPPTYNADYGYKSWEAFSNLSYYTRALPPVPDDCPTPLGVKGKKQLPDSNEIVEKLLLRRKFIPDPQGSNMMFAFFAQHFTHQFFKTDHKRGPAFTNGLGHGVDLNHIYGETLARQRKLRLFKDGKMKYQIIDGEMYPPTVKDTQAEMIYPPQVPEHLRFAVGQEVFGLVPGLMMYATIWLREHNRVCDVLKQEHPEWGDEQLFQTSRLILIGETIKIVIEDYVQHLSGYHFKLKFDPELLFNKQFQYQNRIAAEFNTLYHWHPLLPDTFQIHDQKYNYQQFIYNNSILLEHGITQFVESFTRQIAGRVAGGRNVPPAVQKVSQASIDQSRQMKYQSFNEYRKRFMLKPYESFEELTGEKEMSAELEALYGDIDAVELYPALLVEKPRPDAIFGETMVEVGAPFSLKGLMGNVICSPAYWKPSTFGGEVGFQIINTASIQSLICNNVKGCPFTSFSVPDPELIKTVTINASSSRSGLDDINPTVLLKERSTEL
Kind of data set: In vitro COX-2 inhibition assay (Cayman colorimetric COX inhibitor screening kit). The settings on record: for SI (COX-2 selectivity index): COX-1 (IC50)/COX-2 (IC50); for IC50: COX-2 IC50, mean ± SEM, n = 3.

The next data set has as its target T2, ovine COX-1 (Ovis aries, UniProt P05979).
T2 sequence (P05979 25-600): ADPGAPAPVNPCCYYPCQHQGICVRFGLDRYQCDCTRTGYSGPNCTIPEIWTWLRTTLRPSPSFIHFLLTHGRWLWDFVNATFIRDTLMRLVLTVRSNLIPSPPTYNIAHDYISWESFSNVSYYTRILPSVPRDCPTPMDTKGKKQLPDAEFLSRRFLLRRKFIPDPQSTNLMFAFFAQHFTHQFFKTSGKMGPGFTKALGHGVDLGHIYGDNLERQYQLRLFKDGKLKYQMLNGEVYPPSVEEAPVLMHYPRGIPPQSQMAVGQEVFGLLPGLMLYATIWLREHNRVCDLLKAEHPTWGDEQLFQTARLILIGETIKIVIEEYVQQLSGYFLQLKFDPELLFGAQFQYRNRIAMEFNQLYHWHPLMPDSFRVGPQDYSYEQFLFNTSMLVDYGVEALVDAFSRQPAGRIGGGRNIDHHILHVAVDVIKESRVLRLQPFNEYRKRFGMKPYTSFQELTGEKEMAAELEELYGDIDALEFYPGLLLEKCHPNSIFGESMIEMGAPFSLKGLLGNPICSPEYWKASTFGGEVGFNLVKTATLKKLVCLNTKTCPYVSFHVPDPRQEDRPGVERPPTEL
Kind of data set: In vitro COX-1 inhibition assay (Cayman colorimetric COX inhibitor screening kit).

Data set [1] relates to carrageenan-induced paw edema. Put plainly: Carrageenan paw edema test (paw thickness, paw weight). The settings on record: for Paw thickness difference: oral; for Paw thickness difference / Paw Weight Increase: mean ± SD, n = 6; for Percentage of inhibition of paw thickness: vs carrageenan group; for Paw Weight Increase: right vs left paw, after 5 h. For orientation: In the carrageenan paw model, swelling and tenderness develop within hours.
Experimental: The carrageenan paw edema test was conducted following established procedures as detailed (Supplementary Materials, page 53).
In-vivo anti-inflammatory activity
The carrageenan paw edema test was conducted following established procedures. In summary, seventy-two rats were randomly assigned to twelve groups, each comprising six rats.
These groups included normal controls, carrageenan controls (both receiving the vehicle; 1%
Acute inflammation was induced in the right hind paws of all rats one hour after oral administration of the respective compounds or vehicle. This was achieved by injecting a freshly prepared 0.1 mL carrageenan suspension (1% in normal saline) subplantarly into the right hind paw, except for the normal control group, which received a saline injection. Paw thickness was measured hourly (Ct) until the fifth hour (C5) post-carrageenan injection (C0). The hourly increase in paw thickness (paw thickness difference) was calculated by subtracting the initial measurement (C0) from the thickness at each hour (Ct), and the results were presented as the mean increase in paw thickness (mm). To evaluate anti-inflammatory effects, the percentage of inhibition for each standard and test compound was determined using the formula: percentage of inhibition (%) = [(Paw thickness difference of carrageenan group - Paw thickness difference of treated)/ Paw thickness difference of carrageenan group] × 100. […] The paws were then excised and weighed (both left and right). The percentage of weight increase between the left and right paws of each animal was calculated using the equation: Percentage of weight increase = [(Weight of the right paw - Weight of the left paw) / Weight of the left paw] ×100.

Experimental for human COX-2: (§1) The in vitro enzyme assays were performed at the Biochemistry Department, Cairo
(§2) General Hospital, Egypt. Cayman® colorimetric COX (ovine) inhibitor screening assay kit (Item
(§3) enzymes in presence of all newly compounds. Generally, this kit is dependent on the reductive
(§4) reaction of COX. A specific antibody binds to PGH2 produced by COX and is further quantified
(§5) by the ELISA technique as previously reported. After that, the selectivity index (SI) was calculated
as the following equation:
𝐒𝐞𝐥𝐞𝐜𝐭𝐢𝐯𝐢𝐭𝐲 𝐢𝐧𝐝𝐞𝐱 (𝐒𝐈) = 𝐈𝐂₅₀𝐨𝐟 𝐂𝐎𝐗 − 𝟏
Experimental for ovine COX-1: as §1, §2, §3, §4, §5
as the following equation:
𝐒𝐞𝐥𝐞𝐜𝐭𝐢𝐯𝐢𝐭𝐲 𝐢𝐧𝐝𝐞𝐱 (𝐒𝐈) = 𝐈𝐂₅₀𝐨𝐟 𝐂𝐎𝐗 − 𝟏

For the molecule `O=C(O)COc1ccccc1C=NNC(=O)c1ccccc1` [Compound 5a, 2-(2-((2-Benzoylhydrazineylidene)methyl)phenoxy)acetic acid], the melting point was in the range of 209 to 211 °C. On human COX-2, the “SI (COX-2 selectivity index)” value amounted to 10.31 and it took 0.97 ± 0.06 µM to reach half-maximal inhibition (IC50). Half-maximal inhibition at ovine COX-1 (IC50) was put at 10 ± 0.1 µM.

`O=C(O)COc1ccccc1C=NNC(=O)CNC(=O)c1ccccc1` [Compound 13a, 2-(2-((2-(Benzoylglycyl)hydrazineylidene)methyl)phenoxy)acetic acid] came in with a melting point of 210 to 211 °C. Also, at human COX-2, the “SI (COX-2 selectivity index)” value was found to be 36.65 and the IC50 was found to be 0.23 ± 0.06 µM. Also, the IC50 against ovine COX-1 stood at 8.43 ± 0.12 µM.

As to `O=C(O)COc1ccccc1C=NNC(=O)CNc1ccc(Cl)cc1` [Compound 10c, 2-(2-((2-((4-Chlorophenyl)glycyl)hydrazineylidene)methyl)phenoxy)acetic acid], the “SI (COX-2 selectivity index)” value on human COX-2 worked out at 79.57. Besides, the IC50 stood at 0.07 ± 0.01 µM against human COX-2 and 5.57 ± 0.12 µM against ovine COX-1. Further, the Paw thickness difference in data set [1] (1st h after carrageenan) was 1.65 ± 0.22 mm; in data set [1] (2nd h after carrageenan) it was 2.64 ± 0.33 mm; in data set [1] (3rd h after carrageenan), 3.11 ± 0.29 mm; in data set [1] (4th h after carrageenan) it was 3.81 ± 0.19 mm; in data set [1] (5th h after carrageenan), 4.22 ± 0.28 mm. Further, the “Percentage of inhibition of paw thickness” value in data set [1] (1st h) was 16.47%; in data set [1] (2nd h) it was 19.99%; in data set [1] (3rd h) it was 26.25%; in data set [1] (4th h), 24.47%; in data set [1] (5th h), 20.54%. Besides, the “Paw Weight Increase” value in data set [1] is on record as 69.01 ± 4.61 ^abcd %.

As for `O=C(O)COc1ccccc1C=NNC(=O)c1ccc(Cl)cc1` [Compound 5c, 2-(2-((2-(4-Chlorobenzoyl)hydrazineylidene)methyl)phenoxy)acetic acid], the melting point was 241 to 243 °C. For the same molecule, on human COX-2, the “SI (COX-2 selectivity index)” value is 111.53 and 0.13 ± 0.06 µM corresponded to half-maximal inhibition (IC50). At ovine COX-1, this molecule showed a concentration for half-maximal inhibition (IC50) of 14.5 ± 0.2 µM.

Molecule `Cc1ccc(NCC(=O)NN=Cc2ccccc2OCC(=O)O)cc1` [Compound 10b, 2-(2-((2-(4-Tolylglycyl)hydrazineylidene)methyl)phenoxy)acetic acid] returned a melting point of 236 to 238 °C. At human COX-2, the “SI (COX-2 selectivity index)” value is given as 15.06 and the IC50 was determined as 0.33 ± 0.06 µM. The same molecule gave an IC50 against ovine COX-1 of 4.97 ± 0.06 µM.

As for `Cc1ccc(C(=O)NN=Cc2ccccc2OCC(=O)O)cc1` [Compound 5b, 2-(2-((2-(4-Methylbenzoyl)hydrazineylidene)methyl)phenoxy)acetic acid], the melting point lay in the range of 222 to 223 °C. Also, on human COX-2, the “SI (COX-2 selectivity index)” value stood at 20.27 and it took 0.37 ± 0.06 µM to reach half-maximal inhibition (IC50). Besides, on ovine COX-1, the IC50 is 7.5 ± 0.2 µM.

As for `O=C(O)COc1ccc(Br)cc1C=NNC(=O)c1ccccc1` [Compound 5d, 2-(2-((2-Benzoylhydrazineylidene)methyl)-4-bromophenoxy)acetic acid], the “SI (COX-2 selectivity index)” value at human COX-2 is listed as 112.87. Besides, the half-inhibitory concentration (IC50) at human COX-2 was determined as 0.08 ± 0.01 µM; at ovine COX-1, 9.03 ± 0.15 µM. Further, the Paw thickness difference in data set [1] (1st h after carrageenan) is reported as 1.37 ± 0.13 mm; in data set [1] (2nd h after carrageenan) it was 2.76 ± 0.24 mm; in data set [1] (3rd h after carrageenan), 3.56 ± 0.33 mm; in data set [1] (4th h after carrageenan), 3.7 ± 0.32 mm; in data set [1] (5th h after carrageenan), 3.90 ± 0.41 mm. Further, the “Percentage of inhibition of paw thickness” value stood at 30.57% in data set [1] (1st h); 16.19% in data set [1] (2nd h); 15.67% in data set [1] (3rd h); 26.75% in data set [1] (4th h); 26.51% in data set [1] (5th h). Moreover, the “Paw Weight Increase” value in data set [1] is listed as 76.92 ± 3.89 ^abcd %.

Take `Cc1ccc(NCC(=O)NN=Cc2cc(Br)ccc2OCC(=O)O)cc1` [Compound 10e, 2-(4-Bromo-2-((2-(p-tolylglycyl)hydrazineylidene)methyl)phenoxy)aceticacid]: the “SI (COX-2 selectivity index)” value at human COX-2 amounted to 67.83. The IC50 turned out to be 0.06 ± 0.01 µM against human COX-2 and 4.07 ± 0.12 µM against ovine COX-1. For the same molecule, the Paw thickness difference in data set [1] (1st h after carrageenan) is given as 1.79 ± 0.39 mm; in data set [1] (2nd h after carrageenan) it was 3.00 ± 0.30 mm; in data set [1] (3rd h after carrageenan), 3.58 ± 0.17 mm; in data set [1] (4th h after carrageenan), 3.98 ± 0.26 mm; in data set [1] (5th h after carrageenan), 4.17 ± 0.24 mm. The “Percentage of inhibition of paw thickness” value is given as 9.38% in data set [1] (1st h); 9.01% in data set [1] (2nd h); 15.28% in data set [1] (3rd h); 21.24% in data set [1] (4th h); 21.42% in data set [1] (5th h). Further, the “Paw Weight Increase” value in data set [1] is on record as 64.95 ± 6.79 ^abcd %.

For `Cc1ccc(C(=O)NN=Cc2cc(Br)ccc2OCC(=O)O)cc1` [Compound 5e, 2-(4-Bromo-2-((2-(4-methylbenzoyl)hydrazineylidene)methyl)phenoxy)acetic acid], the “SI (COX-2 selectivity index)” value at human COX-2 is 100.00. Besides, the concentration for half-maximal inhibition (IC50) against human COX-2 came out at 0.07 ± 0.01 µM; on ovine COX-1, 7 ± 0.2 µM. The Paw thickness difference came out at 1.57 ± 0.4 mm in data set [1] (1st h after carrageenan); 2.53 ± 0.48 mm in data set [1] (2nd h after carrageenan); 3.43 ± 0.10 mm in data set [1] (3rd h after carrageenan); 3.55 ± 0.11 mm in data set [1] (4th h after carrageenan); 3.68 ± 0.15 mm in data set [1] (5th h after carrageenan). In addition, the “Percentage of inhibition of paw thickness” value in data set [1] (1st h) was found to be 20.35%; in data set [1] (2nd h) it was 23.28%; in data set [1] (3rd h), 18.71%; in data set [1] (4th h) it was 29.59%; in data set [1] (5th h), 30.72%. Further, the “Paw Weight Increase” value in data set [1] was 47.55 ± 2.41 ^abcd %.

`O=C(O)COc1ccc(Br)cc1C=NNC(=O)CNc1ccc(Cl)cc1` [Compound 10f, 2-(4-Bromo-2-((2-((4 chlorophenyl)glycyl)hydrazineylidene)methyl)phenoxy) acetic acid]: the “SI (COX-2 selectivity index)” value at human COX-2 was determined as 55.22. The values for the IC50 at human COX-2 and against ovine COX-1 were 0.09 ± 0.01 µM and 4.97 ± 0.06 µM, respectively. Besides, the Paw thickness difference was 1.77 ± 0.27 mm in data set [1] (1st h after carrageenan); 2.85 ± 0.46 mm in data set [1] (2nd h after carrageenan); 3.24 ± 0.46 mm in data set [1] (3rd h after carrageenan); 3.63 ± 0.48 mm in data set [1] (4th h after carrageenan); 3.78 ± 0.51 mm in data set [1] (5th h after carrageenan). For the same molecule, the “Percentage of inhibition of paw thickness” value is given as 10.39% in data set [1] (1st h); 13.51% in data set [1] (2nd h); 23.17% in data set [1] (3rd h); 28.04% in data set [1] (4th h); 28.80% in data set [1] (5th h). Also, the “Paw Weight Increase” value in data set [1] is on record as 59.16 ± 2.72 ^abcd %.

In the case of `O=C(O)COc1ccc(Br)cc1/C=N/NC(=O)CNc1ccccc1` [Compound 10d], the “SI (COX-2 selectivity index)” value at human COX-2 worked out at 87.50. The IC50 on human COX-2 is 0.08 ± 0.01 µM; on ovine COX-1, 7 ± 0.2 µM. Further, the Paw thickness difference in data set [1] (1st h after carrageenan) is 1.55 ± 0.41 mm; in data set [1] (2nd h after carrageenan), 2.60 ± 0.21 mm; in data set [1] (3rd h after carrageenan) it was 2.93 ± 0.37 mm; in data set [1] (4th h after carrageenan), 3.44 ± 0.37 mm; in data set [1] (5th h after carrageenan), 3.73 ± 0.34 mm. Further, the “Percentage of inhibition of paw thickness” value is recorded as 21.37% in data set [1] (1st h); 21.15% in data set [1] (2nd h); 30.56% in data set [1] (3rd h); 31.87% in data set [1] (4th h); 29.71% in data set [1] (5th h). The “Paw Weight Increase” value in data set [1] was 60.8 ± 4.27 ^abcd %.
